Data from patent US12391737B2, “Soluble NPY2 receptor agonists” (Boehringer Ingelheim International GmbH, priority 2020, dated 2025).
*1 amine or outer side, *2 acyl side, *3 side chain or, on linkers, in order; H or OH if unused. Where a SMILES comes first, the peptide text is derived from it. Side-chain parts run from the residue outwards. The star is where a group is joined. C18 diacid = O=C(O)CCCCCCCCCCCCCCCCC(=O)*; γGlu = O=C(O)[C@H](CCC(=O)[*:2])N[*:1]; Isovaleryl = CC(C)CC(=O)*; Ahx = NCCCCCC(=O)O

What was measured:
Solubility determination = details: for Sol6: pH 6; for Sol7: pH 7
Outline: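 Shake-flask style: 10 mg/ml peptide (TFA salt), 0.1 M sodium diphosphate pH 6.4/7.0, 600 rpm, 2 h, RT; filter; dilute 1 mg/ml in 50% MeCN; RP-UPLC, 0–100% B over 2 min, 50 °C. Solubility = sample/control area ratio. Final pH recorded.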

[1] = target: T1, Human Neuropeptide Y2 Receptor (Homo sapiens, UniProt P49146); assay: Radioligand binding competition assay (RLB); details: Table 3, 125I-PYY(1-36) competition; read-out: Ki
T1 construct: purchased CHEMICON HTS066M
T1 sequence (P49146 1-381): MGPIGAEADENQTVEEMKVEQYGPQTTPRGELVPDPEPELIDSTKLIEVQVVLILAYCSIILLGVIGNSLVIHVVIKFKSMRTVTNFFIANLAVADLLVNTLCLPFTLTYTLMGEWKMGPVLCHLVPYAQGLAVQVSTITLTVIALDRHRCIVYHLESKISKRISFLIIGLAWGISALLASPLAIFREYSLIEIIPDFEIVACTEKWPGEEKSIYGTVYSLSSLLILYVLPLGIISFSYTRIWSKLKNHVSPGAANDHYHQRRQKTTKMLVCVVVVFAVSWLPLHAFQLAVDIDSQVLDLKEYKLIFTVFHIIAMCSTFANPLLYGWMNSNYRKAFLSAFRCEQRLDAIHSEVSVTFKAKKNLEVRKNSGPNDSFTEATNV
Outline: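 Competition binding used membranes expressing the receptor (0.5 μg protein/well) in 50 mM HEPES, 5 mM MgCl2, 1 mM CaCl2, pH 7.4 with 0.2% ovalbumin, incubated 2 h at room temperature with shaking. Bound radioligand was collected by filtration onto PEI-soaked GF/C filters and counted; IC50 from nonlinear sigmoidal fits.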

| SMILES | Sol6 (Solubility determination) [mg/mL] | Sol7 (Solubility determination) [mg/mL] | Ki [1] [nM] |
| --- | --- | --- | --- |
| CC[C@H](C)[C@H](NC(=O)[C@H](Cc1ccc(O)cc1)NC(=O)[C@H](Cc1ccc(O)cc1)NC(=O)[C@H](CCCNC(=N)N)NC(=O)[C@H](CCC(N)=O)NC(=O)[C@H](CC(C)C)NC(=O)[C@H](CCC(=O)O)NC(=O)[C@H](CCC(=O)O)NC(=O)[C@@H]1CCCN1C(=O)[C@H](CCC(=O)O)NC(=O)[C@H](C)NC(=O)[C@H](CC(=O)O)NC(=O)[C@H](C)NC(=O)[C@H](CCC(=O)O)NC(=O)[C@@H]1CCCN1C(=O)[C@H](CCCCNC(=O)CCCCCNC(=O)CC[C@H](NC(=O)CCCCCCCCCCCCCCCCC(=O)O)C(=O)O)NC(=O)[C@H](CCC(=O)O)NC(=O)[C@@H]1CCCN1C(=O)[C@H](C)NC(=O)CC(C)C)C(=O)N[C@@H](CO)C(=O)N[C@@H](CC(C)C)C(=O)N[C@@H](CCCNC(=N)N)C(=O)N[C@@H](Cc1c[nH]cn1)C(=O)N[C@@H](Cc1ccc(O)cc1)C(=O)N[C@@H](Cc1ccc(O)cc1)C(=O)N[C@@H](CC(N)=O)C(=O)N[C@@H](Cc1c[nH]c2ccccc12)C(=O)N[C@@H](CC(C)C)C(=O)N[C@H](C(=O)N[C@@H](CCCNC(=N)N)C(=O)N[C@@H](CCC(N)=O)C(=O)N[C@@H](CCCNC(=N)N)C(=O)N[C@@H](Cc1ccc(O)cc1)C(N)=O)[C@@H](C)O [Compound 159, N{alpha-4}-(3-methylbutanoyl)-N{epsilon-7}-(6-[(4S)-4-carboxy-4-(17-carboxyheptadecanamido)butanamido]hexanoyl)-[4A,7K,9E,10A,13E,18Q,22I,28Y,30W,31L]-hPYY(4-36)] (Isovaleryl-APEK([Ahx-γGlu-C18 diacid])PEADAEPEELQRYYISLRHYYNWLTRQRY-NH2) | >10.0 | 10.0 | 2.75 |
| CC(C)CC(=O)N[C@@H](C)C(=O)N1CCC[C@H]1C(=O)N[C@@H](C)C(=O)N[C@@H](CCCCNC(=O)CCCCCNC(=O)CC[C@H](NC(=O)CCCCCCCCCCCCCCCCC(=O)O)C(=O)O)C(=O)N1CCC[C@H]1C(=O)N[C@@H](CCC(=O)O)C(=O)N[C@@H](CCC(=O)O)C(=O)N[C@@H](CC(=O)O)C(=O)N[C@@H](C)C(=O)N[C@@H](CO)C(=O)N1CCC[C@H]1C(=O)N[C@@H](CCC(=O)O)C(=O)N[C@@H](CCC(=O)O)C(=O)N[C@@H](CC(C)C)C(=O)N[C@@H](CCC(N)=O)C(=O)N[C@@H](CCCNC(=N)N)C(=O)N[C@@H](Cc1ccc(O)cc1)C(=O)N[C@@H](CCC(N)=O)C(=O)N[C@H](C(=O)N[C@@H](CO)C(=O)N[C@@H](CC(C)C)C(=O)N[C@@H](CCCNC(=N)N)C(=O)N[C@@H](Cc1c[nH]cn1)C(=O)N[C@@H](Cc1ccc(O)cc1)C(=O)N[C@@H](Cc1ccc(O)cc1)C(=O)N[C@@H](CC(N)=O)C(=O)N[C@@H](Cc1c[nH]c2ccccc12)C(=O)N[C@@H](CC(C)C)C(=O)N[C@H](C(=O)N[C@@H](CCCNC(=N)N)C(=O)N[C@@H](CCC(N)=O)C(=O)N[C@@H](CCCNC(=N)N)C(=O)N[C@@H](Cc1ccc(O)cc1)C(N)=O)[C@@H](C)O)C(C)C [Compound 20, N{alpha-4}-(3-methylbutanoyl)-N{epsilon-7}-(6-[(4S)-4-carboxy-4-(17-carboxyheptadecanamido)butanamido]hexanoyl)[4A,6A,7K,9E,18Q,21Q,22V,28Y,30W,31L]-hPYY(4-36)] | >10.0 | 10.0 | 2.41 |
| CC[C@H](C)[C@H](NC(=O)[C@H](Cc1ccc(O)cc1)NC(=O)[C@H](Cc1ccc(O)cc1)NC(=O)[C@H](CCCNC(=N)N)NC(=O)[C@H](CCC(N)=O)NC(=O)[C@H](CC(C)C)NC(=O)[C@H](CCC(=O)O)NC(=O)[C@H](CCC(=O)O)NC(=O)[C@@H]1CCCN1C(=O)[C@H](CCC(=O)O)NC(=O)[C@H](C)NC(=O)[C@H](CC(=O)O)NC(=O)[C@H](C)NC(=O)[C@H](CCC(=O)O)NC(=O)[C@@H]1CCCN1C(=O)[C@H](CCCCNC(=O)CCCCCNC(=O)CC[C@H](NC(=O)CCCCCCCCCCCCCCCCC(=O)O)C(=O)O)NC(=O)[C@H](CCC(=O)O)NC(=O)[C@@H]1CCCN1C(=O)[C@H](C)NC(=O)CC(C)C)C(=O)N[C@@H](C)C(=O)N[C@@H](CC(C)C)C(=O)N[C@@H](CCCNC(=N)N)C(=O)N[C@@H](Cc1c[nH]cn1)C(=O)N[C@@H](Cc1ccc(O)cc1)C(=O)N[C@@H](Cc1ccc(O)cc1)C(=O)N[C@@H](CC(N)=O)C(=O)N[C@@H](Cc1c[nH]c2ccccc12)C(=O)N[C@@H](CC(C)C)C(=O)N[C@H](C(=O)N[C@@H](CCCNC(=N)N)C(=O)N[C@@H](CCC(N)=O)C(=O)N[C@@H](CCCNC(=N)N)C(=O)N[C@@H](Cc1ccc(O)cc1)C(N)=O)[C@@H](C)O [Compound 1, N{alpha-4}-(3-methylbutanoyl)-N{epsilon-7}-(6-[(4S)-4-carboxy-4-(17-carboxyheptadecanamido)butanamido]hexanoyl)[4A,7K,9E,10A,13E,18Q,22I,23A,28Y,30W,31L]-hPYY(4-36)] | 10.0 | 7.6 | 2.05 |
| CC(C)CC(=O)N[C@@H](C)C(=O)N1CCC[C@H]1C(=O)N[C@@H](CCC(=O)O)C(=O)N[C@@H](CCCCNC(=O)CCCCCNC(=O)CC[C@H](NC(=O)CCCCCCCCCCCCCCCCC(=O)O)C(=O)O)C(=O)N1CCC[C@H]1C(=O)N[C@@H](CCC(=O)O)C(=O)N[C@@H](CCC(=O)O)C(=O)N[C@@H](CC(=O)O)C(=O)N[C@@H](C)C(=O)N[C@H](C(=O)N1CCC[C@H]1C(=O)N[C@@H](CCC(=O)O)C(=O)N[C@@H](CCC(=O)O)C(=O)N[C@@H](C)C(=O)N[C@@H](CCC(N)=O)C(=O)N[C@@H](CCCNC(=N)N)C(=O)N[C@@H](Cc1ccc(O)cc1)C(=O)N[C@@H](Cc1ccc(O)cc1)C(=O)N[C@H](C(=O)N[C@@H](CO)C(=O)N[C@@H](CC(C)C)C(=O)N[C@@H](CCCNC(=N)N)C(=O)N[C@@H](Cc1c[nH]cn1)C(=O)N[C@@H](Cc1ccc(O)cc1)C(=O)N[C@@H](Cc1ccc(O)cc1)C(=O)N[C@@H](CC(N)=O)C(=O)N[C@@H](Cc1c[nH]c2ccccc12)C(=O)N[C@@H](CC(C)C)C(=O)N[C@H](C(=O)N[C@@H](CCCNC(=N)N)C(=O)N[C@@H](CCC(N)=O)C(=O)N[C@@H](CCCNC(=N)N)C(=O)N[C@@H](Cc1ccc(O)cc1)C(N)=O)[C@@H](C)O)C(C)C)[C@@H](C)O [Compound 54, N{alpha-4}-(3-methylbutanoyl)-N{epsilon-7}-(6-[(4S)-4-carboxy-4-(17-carboxyheptadecanamido)butanamido]hexanoyl)-[4A,7K,9E,13T,17A,18Q,22V,28Y,30W,31L]-hPYY(4-36)] | 10.0 | 10.0 | 8.97 |
| CC[C@H](C)[C@H](NC(=O)[C@H](CCC(=O)O)NC(=O)[C@H](CCC(=O)O)NC(=O)[C@@H]1CCCN1C(=O)[C@@H](NC(=O)[C@H](C)NC(=O)[C@H](C)NC(=O)[C@H](CCC(=O)O)NC(=O)[C@H](CCC(=O)O)NC(=O)[C@@H]1CCCN1C(=O)[C@H](CCCCNC(=O)CCCCCNC(=O)CC[C@H](NC(=O)CCCCCCCCCCCCCCCCC(=O)O)C(=O)O)NC(=O)[C@H](CCC(=O)O)NC(=O)[C@@H]1CCCN1C(=O)[C@H](C)NC(=O)CC(C)C)[C@@H](C)O)C(=O)N[C@@H](CCC(N)=O)C(=O)N[C@@H](CCCNC(=N)N)C(=O)N[C@@H](Cc1ccc(O)cc1)C(=O)N[C@@H](Cc1ccc(O)cc1)C(=O)N[C@H](C(=O)N[C@@H](C)C(=O)N[C@@H](CC(C)C)C(=O)N[C@@H](CCCNC(=N)N)C(=O)N[C@@H](Cc1c[nH]cn1)C(=O)N[C@@H](Cc1ccc(O)cc1)C(=O)N[C@@H](Cc1ccc(O)cc1)C(=O)N[C@@H](CC(N)=O)C(=O)N[C@@H](Cc1c[nH]c2ccccc12)C(=O)N[C@@H](CC(C)C)C(=O)N[C@H](C(=O)N[C@@H](CCCNC(=N)N)C(=O)N[C@@H](CCC(N)=O)C(=O)N[C@@H](CCCNC(=N)N)C(=O)N[C@@H](Cc1ccc(O)cc1)C(N)=O)[C@@H](C)O)C(C)C [Compound 154, N{alpha-4}-(3-methylbutanoyl)-N{epsilon-7}-(6-[(4S)-4-carboxy-4-(17-carboxyheptadecanamido)butanamido]hexanoyl)-[4A,7K,9E,11A,13T,17I,18Q,22V,23A,28Y,30W,31L]-hPYY(4-36)] | 8.3 | >10.0 | 3.71 |
| CC(C)CC(=O)N[C@@H](C)C(=O)N1CCC[C@H]1C(=O)N[C@@H](CCC(=O)O)C(=O)N[C@@H](CCCCNC(=O)CCCCCNC(=O)CC[C@H](NC(=O)CCCCCCCCCCCCCCCCC(=O)O)C(=O)O)C(=O)N1CCC[C@H]1C(=O)N[C@@H](CCC(=O)O)C(=O)N[C@@H](CCC(=O)O)C(=O)N[C@@H](CC(=O)O)C(=O)N[C@@H](C)C(=O)N[C@H](C(=O)N1CCC[C@H]1C(=O)N[C@@H](CCC(=O)O)C(=O)N[C@@H](CCC(=O)O)C(=O)N[C@@H](CC(C)C)C(=O)N[C@@H](CCC(N)=O)C(=O)N[C@@H](CCCNC(=N)N)C(=O)N[C@@H](Cc1ccc(O)cc1)C(=O)N[C@@H](Cc1ccc(O)cc1)C(=O)N[C@H](C(=O)N[C@@H](CO)C(=O)N[C@@H](CC(C)C)C(=O)N[C@@H](CCCNC(=N)N)C(=O)N[C@@H](Cc1c[nH]cn1)C(=O)N[C@@H](Cc1ccc(O)cc1)C(=O)N[C@@H](Cc1ccc(O)cc1)C(=O)N[C@@H](CC(N)=O)C(=O)N[C@@H](Cc1c[nH]c2ccccc12)C(=O)N[C@@H](CC(C)C)C(=O)N[C@@H](CC(C)C)C(=O)N[C@@H](CCCNC(=N)N)C(=O)N[C@@H](CCC(N)=O)C(=O)N[C@@H](CCCNC(=N)N)C(=O)N[C@@H](Cc1ccc(O)cc1)C(N)=O)C(C)C)[C@@H](C)O [Compound 137, N{alpha-4}-(3-methylbutanoyl)-N{epsilon-7}-(6-[(4S)-4-carboxy-4-(17-carboxyheptadecanamido)butanamido]hexanoyl)-[4A,7K,9E,13T,18Q,22V,28Y,30W,31L,32L]-hPYY(4-36)] | >10.0 | >10.0 | 49.6 |
